Residues, ends and D or L forms follow the SMILES beside them.

Consider `NC(C(=O)NC(=O)C(NC(=O)Cc1cc(F)cc(F)c1)c1ccccc1)c1ccccc1` (mixture of isomers) [Example 248, N-[N-(3,5-Difluorophenylacetyl)-D,L-phenylglycinyl]-D,L-phenylglycinamide], for which the melting point (commonly the temperature of the solid-liquid transition) lay in the range of 285.5 to 288.5 °C.

In turn, `CC(C)C(NC(=O)Cc1cc(F)cc(F)c1)C(=O)NC(=O)C(N)c1ccccc1` (mixture of isomers) [Example 249, N-[N-(3,5-Difluorophenylacetyl)-D,L-valinyl]-D,L-phenylglycinamide] registered a melting point of 260.3 to 264.3 °C.

Turning to `CCCC[C@H](NC(=O)[C@H](C)NC(=O)Cc1cc(F)cc(F)c1)C(=O)OC` [Example 1, Methyl N-[N-(3,5-Difluorophenylacetyl)-L-alaninyl]-(S)-2-aminohexanoate], the melting point lay within 142 to 143 °C.

Turning to `COC(=O)[C@H](Cc1c[nH]cn1)NC(=O)[C@H](C)NC(=O)Cc1cc(F)cc(F)c1` [Example 2, N-[N-(3,5-Difluorophenylacetyl)-L-alaninyl]-L-histidine Methyl Ester], the melting point is 195 to 197 °C.

On to `C=CCCC(=O)N[C@@H](C)C(=O)N[C@@H](Cc1ccccc1)C(=O)OC` [Example 11, N-[N-(Pent-4-enoyl)-L-alaninyl]-L-phenylalanine Methyl Ester], for which the melting point fell in the range of 125.5 to 126.5 °C.

`CCCCCC=CCCC(=O)N[C@@H](C)C(=O)N[C@@H](Cc1ccccc1)C(=O)OC` [Example 12, N-[N-(Dec-4-enoyl)-L-alaninyl]-L-phenylalanine Methyl Ester] had a melting point of 115.5 to 117.5 °C.

In turn, `COC(=O)[C@H](Cc1ccc(OCCCN(C)C)cc1)NC(=O)[C@H](C)NC(=O)Cc1cc(F)cc(F)c1` [Example 13, N-[N-(3,5-Difluorophenylacetyl)-L-alaninyl]-L-4-[3-(N,N-dimethylamino)propoxy]phenylalanine Methyl Ester] yielded a melting point of 153 to 155 °C.

Regarding `COC(=O)[C@H](Cc1ccc(OCC(=O)OC(C)(C)C)cc1)NC(=O)[C@H](C)NC(=O)Cc1cc(F)cc(F)c1` [Example 14, N-[N-(3,5-Difluorophenylacetyl)-L-alaninyl]-L-4-[(tert-butyloxycarbonyl)methoxy]phenylalanine Methyl Ester], the melting point lay in the range of 116 to 119 °C.

Take `COC(=O)[C@H](Cc1ccc(O)cc1)NC(=O)[C@H](C)NC(=O)Cc1cc(F)cc(F)c1` [Example 15, N-[N-(3,5-Difluorophenylacetyl)-L-alaninyl]-L-tyrosine Methyl Ester]: the melting point is 85 to 88 °C.

`COC(=O)[C@H](CCCCN(C)C)NC(=O)[C@H](C)NC(=O)Cc1cc(F)cc(F)c1` [Example 18, Methyl N-[N-(3,5-Difluorophenylacetyl)-L-alaninyl]-(S)-2-amino-6-(N,N-dimethylamino)hexanoate] yielded a melting point of 123 to 126 °C.

The molecule `COC(=O)[C@H](Cc1cccnc1)NC(=O)[C@H](C)NC(=O)Cc1cc(F)cc(F)c1` [Example 20, Methyl N-[N-(3,5-Difluorophenylacetyl)-L-alaninyl]-(S)-2-amino-3-(3-pyridyl)propionate] had a melting point of 101 to 103 °C.

On to `COCC(NC(=O)[C@H](C)NC(=O)Cc1cc(F)cc(F)c1)C(=O)OC` (stereo partly drawn) [Example 24, Methyl N-[N-(3,5-Difluorophenylacetyl)-L-alaninyl]-2-amino-3-methoxypropionate], for which the melting point lay in the range of 165 to 168 °C.

Consider `COC(=O)CNC(=O)[C@H](C)NC(=O)Cc1cc(F)cc(F)c1` [Example 28, N-[N-(3,5-Difluorophenylacetyl)-L-alaninyl]glycine Methyl Ester], for which the melting point lay within 158 to 160 °C.

The molecule `COC(=O)[C@H](Cc1cscn1)NC(=O)[C@H](C)NC(=O)Cc1cc(F)cc(F)c1` [Example 31, Methyl N-[N-(3,5-Difluorophenylacetyl)-L-alaninyl]-(S)-2-amino-3-(thiazol-4-yl)propionate] registered a melting point of 136 to 139 °C.

Regarding `COC(=O)C1Cc2ccccc2CN1C(=O)[C@H](C)NC(=O)Cc1cc(F)cc(F)c1` (stereo partly drawn) [Example 32, Methyl 2-[N-(3,5-Difluorophenylacetyl)-L-alaninyl]-1,2,3,4-tetrahydroisoquinoline-3-carboxylate], the melting point lay within 37 to 40 °C.

Molecule `COC(=O)[C@H](Cc1cccs1)NC(=O)[C@H](C)NC(=O)Cc1cc(F)cc(F)c1` [Example 36, Methyl N-[N-(3,5-Difluorophenylacetyl)-L-alaninyl]-(S)-2-amino-3-(2-thienyl)propionate] had a melting point of 145 to 147 °C.

In the case of `C[C@H](NC(=O)Cc1cc(F)cc(F)c1)C(=O)N[C@@H](Cc1ccccc1)C(=O)OCc1ccccc1` [Example 37, N-[N-(3,5-Difluorophenylacetyl)-L-alaninyl]-L-phenylalanine Benzyl Ester], the melting point is 170 to 171 °C.

In the case of `C[C@H](NC(=O)Cc1cc(F)cc(F)c1)C(=O)N[C@@H](Cc1ccccc1)C(=O)OCCCBr` [Example 38, N-[N-(3,5-Difluorophenylacetyl)-L-alaninyl]-L-phenylalanine 3-Bromopropyl Ester], the melting point lay within 138 to 142 °C.

`CC(C)C[C@H](NC(=O)[C@H](C)NC(=O)Cc1cc(F)cc(F)c1)C(=O)OC(C)(C)C` [Example 40, N-[N-(3,5-Difluorophenylacetyl)-L-alaninyl]-L-leucine tert-Butyl Ester] returned a melting point of 128 °C.

`COC(=O)[C@H](CCc1ccccc1)NC(=O)[C@H](C)NC(=O)Cc1cc(F)cc(F)c1` [Example 44, Methyl N-[N-(3,5-Difluorophenylacetyl)-L-alaninyl]-(S)-2-amino-4-phenylbutanoate] came in with a melting point of 147 to 149.5 °C.

Turning to `C[C@H](NC(=O)Cc1cc(F)cc(F)c1)C(=O)NCC(=O)OCCc1ccccc1` [Example 45, N-[N-(3,5-Difluorophenylacetyl)-L-alaninyl]glycine 2-Phenylethyl Ester], the melting point lay within 154 to 155.2 °C.

As for `C[C@H](NC(=O)Cc1cc(F)cc(F)c1)C(=O)NCC(=O)OCCCc1ccccc1` [Example 46, N-[N-(3,5-Difluorophenylacetyl)-L-alaninyl]glycine 3-Phenylpropyl Ester], the melting point amounted to 137 °C.

For the molecule `CCOC(=O)C(NC(=O)[C@H](C)NC(=O)Cc1cc(F)cc(F)c1)c1cccnc1` (stereo partly drawn) [Example 53, Ethyl N-[N-(3,5-Difluorophenylacetyl)-L-alaninyl]-2-amino-2-(3-pyridyl)acetate], the melting point was 146 to 157 °C.

Consider `COC(=O)C(NC(=O)[C@H](C)NC(=O)Cc1cc(F)cc(F)c1)c1cccc(OC)c1` (stereo partly drawn) [Example 63, Methyl N-[N-(3,5-Difluorophenylacetyl)-L-alaninyl]-2-amino-2-(3-methoxyphenyl)acetate], for which the melting point lay within 163 to 170 °C.

`COC(=O)C(NC(=O)[C@H](C)NC(=O)Cc1cc(F)cc(F)c1)c1ccc(OC)cc1` (stereo partly drawn) [Example 64, Methyl N-[N-(3,5-Difluorophenylacetyl)-L-alaninyl]-2-amino-2-(4-methoxyphenyl)acetate] showed a melting point of 170 to 174 °C.

For the molecule `CCOC(=O)C(NC(=O)[C@H](C)NC(=O)Cc1cc(F)cc(F)c1)c1ccccn1` (stereo partly drawn) [Example 65, Ethyl N-[N-(3,5-Difluorophenylacetyl)-L-alaninyl]-2-amino-2-(2-pyridyl)acetate], the melting point lay within 123 to 125 °C.

As to `CCOC(=O)C(NC(=O)[C@H](C)NC(=O)Cc1cc(F)cc(F)c1)c1ccncc1` (stereo partly drawn) [Example 66, Ethyl N-[N-(3,5-Difluorophenylacetyl)-L-alaninyl]-2-amino-2-(4-pyridyl)acetate], the melting point lay within 175 to 181 °C.

Molecule `COC(=O)[C@H](Cc1ccccc1)NC(=O)[C@H](C)NC(=O)CC1CCCCC1` [Example 67, N-[N-(Cyclohexylacetyl)-L-alaninyl]-L-phenylalanine Methyl Ester] displayed a melting point of 156 to 158 °C.

Regarding `COC(=O)[C@H](Cc1ccccc1)NC(=O)[C@H](C)NC(=O)CC1CCCC1` [Example 68, N-[N-(Cyclopentylacetyl)-L-alaninyl]-L-phenylalanine Methyl Ester], the melting point lay in the range of 137 to 139 °C.

Molecule `COC(=O)[C@H](Cc1ccccc1)NC(=O)[C@H](C)NC(=O)CC1=CCCCC1` [Example 69, N-[N-(Cyclohex-1-enylacetyl)-L-alaninyl]-L-phenylalanine Methyl Ester] registered a melting point of 139 to 142 °C.

Regarding `COC(=O)[C@H](Cc1ccccc1)NC(=O)[C@H](C)NC(=O)CC1CC1` [Example 72, N-[N-(Cyclopropylacetyl)-L-alaninyl]-L-phenylalanine Methyl Ester], the melting point fell in the range of 128 to 131 °C.

`C[C@H](NC(=O)Cc1cc(F)cc(F)c1)C(=O)NCC(=O)OCc1ccccc1` [Example 73, N-[N-(3,5-Difluorophenylacetyl)-L-alaninyl]glycine Benzyl Ester] showed a melting point of 167.5 °C.

Turning to `CCOC(=O)[C@H](C)NC(=O)[C@@H](NC(=O)CC(C)C)c1ccccc1` [Example 74, N-[N-(Isovaleryl)-L-phenylglycinyl]-L-alanine Ethyl Ester] (HELM PEPTIDE1{[CC(C)CC(=O)[*:2]].[Phg].A.[CCO[*:1]]}$$$$V2.0), the melting point is 198 to 201 °C.

As for `COC(=O)[C@H](Cc1ccccc1)NC(=O)[C@H](C)NC(=O)Cc1cccc([N+](=O)[O-])c1` [Example 75, N-[N-(3-Nitrophenylacetyl)-L-alaninyl]-L-phenylalanine Methyl Ester], the melting point lay in the range of 154 to 158 °C.

`CCOC(=O)[C@H](C)NC(=O)[C@H](C)NC(=O)Cc1cccc([N+](=O)[O-])c1` [Example 76, N-[N-(3-Nitrophenylacetyl)-L-alaninyl]-L-alanine Ethyl Ester] displayed a melting point of 193 to 195 °C.

For `CCOC(=O)CNC(=O)[C@H](C)NC(=O)Cc1cccc([N+](=O)[O-])c1` [Example 77, N-[N-(3-Nitrophenylacetyl)-L-alaninyl]glycine Ethyl Ester], the melting point is 164 to 165 °C.

Consider `CC(C)COC(=O)[C@H](C)NC(=O)[C@@H](NC(=O)CC(C)C)c1ccccc1` [Example 79, N-[N-(Isovaleryl)-L-phenylglycinyl]-L-alanine iso-butyl Ester], for which the melting point lay in the range of 181 to 186 °C.

The record behind these values is US6476263B1, “Compounds for inhibiting β-amyloid peptide release and/or its synthesis” (Elan Pharmaceuticals, Inc., priority 1996, dated 2002).
